This is an account of results in patent US20240300942A1, “SMALL MOLECULES FOR TREATEMENT OF CANCER” (VRise Therapeutics Inc., priority 2021, published 2024).

A value given as a limit tells only on which side of the number the result lay.

In one experiment the test system is MIAPACA-2 cell line. The experiment is described as follows: In vitro cell proliferation assay (CCK-8) in MIAPACA-2 cell line. The format is cell-based. The settings on record: Homo sapiens, MIA PaCa-2, 72 hours; for inhibition at 3 µM: TC1: Test Concentration of 3 uM; for inhibition at 10 µM: TC2: Test Concentration of 10 uM. On the procedure:
(§1) Growth inhibition assays is to be carried out using 10% FBS supplemented media. Cells are to be seeded at a desired concentration of 1,500-6,000 cells/well in a 96-well plate. Test compounds at a concentration range from 1 to 30 uM will be added after 24 hours. Growth will be assessed using the CCK-8 kit for measuring reduction at 0 h (prior to the addition of the test compound) and 72 hours after the addition of test compound. Absorbance read on a BIO-RAD iMark Microplate or any equivalent microplate reader at a wavelength of 450 nm. Data was analysed and percent inhibition due to the test compound compared to the control is calculated accordingly.

For a further experiment, the system named is NCI-H358 cell line. In words: In vitro cell proliferation assay (CCK-8) in NCI-H358 cell line. The format is cell-based. The settings on record: Homo sapiens, 72 hours; for inhibition at 3 µM: TC1: Test Concentration of 3 uM; for inhibition at 10 µM: TC2: Test Concentration of 10 uM. On the procedure: as §1

For `C=CC(=O)N1CCN(c2nc(N3CC(C)OC(C)C3)c(C#N)c3c2CCN(c2cccc4ccccc24)C3)CC1CC#N` (racemic) [Ex 13, 1-(4-acryloyl-3-(cyanomethyl)piperazin-1-yl)-3-(2,6-dimethylmorpholino)-6-(naphthalen-1-yl)-5,6,7,8-tetrahydro-2,6-naphthyridine-4-carbonitrile], in the experiment with MIAPACA-2 cell line, the inhibition at 3 µM fell in the range of 75 to 100% and the inhibition at 10 µM was 75 to 100%. In the experiment with MIAPACA-2 cell line, `C=CC(=O)N1CCN(c2nc(N3CC(C)OC(C)C3)c(C#N)c3c2CCN(c2cccc4ccccc24)C3)C[C@@H]1CC#N` (single isomer, unassigned) [Ex 14] returned an inhibition at 3 µM of 75 to 100% and an inhibition at 10 µM of 75 to 100%. In the experiment on MIAPACA-2 cell line, `C=CC(=O)N1CCN(c2nc(N3CC(C)OC(C)C3)c(C#N)c3c2CCN(c2cccc4ccccc24)C3)C[C@H]1CC#N` (single isomer, unassigned) [Ex 15] displayed an inhibition at 3 µM of 75 to 100% and an inhibition at 10 µM of 75 to 100%.

Consider `C=CC(=O)N1CCN(c2nc(N3CCS(=O)(=O)CC3)c(C#N)c3c2CCN(c2cccc4ccccc24)C3)CC1` [Ex 1, 1-(4-acryloylpiperazin-1-yl)-3-(1,1-dioxidothiomorpholino)-6-(naphthalen-1-yl)-5,6,7,8-tetrahydro-2,6-naphthyridine-4-carbonitrile], for which the inhibition at 10 µM in the experiment with MIAPACA-2 cell line lay within 75 to 100%. In the experiment with MIAPACA-2 cell line, `C=CC(=O)N1CCN(c2nc(OC[C@@H]3CCCN3C)c(C#N)c3c2CCN(c2cccc4cccc(Cl)c24)C3)CC1` [Ex 8, (S)-1-(4-acryloylpiperazin-1-yl)-6-(8-chloronaphthalen-1-yl)-3-((1-methylpyrrolidin-2-yl)methoxy)-5,6,7,8-tetrahydro-2,6-naphthyridine-4-carbonitrile] displayed an inhibition at 3 µM of 25 to 50% and an inhibition at 10 µM of 75 to 100%. On the same counts, the results for `C=CC(=O)N1CCN(c2nc(OC[C@@H]3CCCN3C)c(C#N)c3c2CCN(c2cc(O)cc4ccccc24)C3)CC1` [Ex 9, (S)-1-(4-acryloylpiperazin-1-yl)-6-(3-hydroxynaphthalen-1-yl)-3-((1-methylpyrrolidin-2-yl)methoxy)-5,6,7,8-tetrahydro-2,6-naphthyridine-4-carbonitrile] are 75 to 100% and 75 to 100%.

In the experiment on MIAPACA-2 cell line, `C=C(F)C(=O)N1CCN(c2nc(OC[C@@H]3CCCN3C)c(C#N)c3c2CCN(c2ncnc4ccccc24)C3)CC1` [Ex 10, (S)-1-(4-(2-fluoroacryloyl)piperazin-1-yl)-3-((1-methylpyrrolidin-2-yl)methoxy)-6-(quinazolin-4-yl)-5,6,7,8-tetrahydro-2,6-naphthyridine-4-carbonitrile] had an inhibition at 3 µM of 75 to 100% and an inhibition at 10 µM of 75 to 100%. In the experiment with MIAPACA-2 cell line, `C=CS(=O)(=O)N1CCN(c2nc(OC[C@@H]3CCCN3C)c(C#N)c3c2CCN(c2cccc4cccc(Cl)c24)C3)CC1` [Ex 11, (S)-6-(8-chloronaphthalen-1-yl)-3-((1-methylpyrrolidin-2-yl)methoxy)-1-(4-(vinylsulfonyl)piperazin-1-yl)-5,6,7,8-tetrahydro-2,6-naphthyridine-4-carbonitrile] showed an inhibition at 3 µM of 75 to 100% and an inhibition at 10 µM of 75 to 100%. Turning to `C=C(F)C(=O)N1CCN(c2nc(OC[C@@H]3CCCN3C)c(C#N)c3c2CCN(c2cccc4cccc(Cl)c24)C3)CC1C` (stereo partly drawn) [Ex 12, 6-(8-chloronaphthalen-1-yl)-1-(4-(2-fluoroacryloyl)-3-methylpiperazin-1-yl)-3-(((S)-1-methylpyrrolidin-2-yl)methoxy)-5,6,7,8-tetrahydro-2,6-naphthyridine-4-carbonitrile], in the experiment on MIAPACA-2 cell line, the inhibition at 3 µM fell in the range of 50 to 75% and the inhibition at 10 µM was 75 to 100%.

As to `C=CC(=O)N1CCN(c2nc(OC[C@@H]3CCCN3C)c(C#N)c3c2CCN(c2cccc4ccccc24)C3)C[C@@H]1CC#N` [Ex 17, 1-((S)-4-acryloyl-3-(cyanomethyl)piperazin-1-yl)-3-(((S)-1-methylpyrrolidin-2-yl)methoxy)-6-(naphthalen-1-yl)-5,6,7,8-tetrahydro-2,6-naphthyridine-4-carbonitrile], in the experiment with MIAPACA-2 cell line, the inhibition at 3 µM was 75 to 100% and the inhibition at 10 µM is 75 to 100%. In the experiment with MIAPACA-2 cell line, `C=CC(=O)N1CCN(c2nc(OC[C@@H]3CCCN3C)c(C#N)c3c2CCN(c2cccc4ccccc24)C3)C[C@H]1CC#N` [Ex 18, 1-((R)-4-acryloyl-3-(cyanomethyl)piperazin-1-yl)-3-(((S)-1-methylpyrrolidin-2-yl)methoxy)-6-(naphthalen-1-yl)-5,6,7,8-tetrahydro-2,6-naphthyridine-4-carbonitrile] registered an inhibition at 3 µM of 75 to 100% and an inhibition at 10 µM of 75 to 100%. In the case of `C=CC(=O)N1CCN(c2nc(OC[C@@H]3CCCN3C)c(C#N)c3c2CCN(c2cc(O)cc4ccccc24)C3)CC1CC#N` (stereo partly drawn) [Ex 19, 1-(4-acryloyl-3-(cyanomethyl)piperazin-1-yl)-6-(3-hydroxynaphthalen-1-yl)-3-(((S)-1-methylpyrrolidin-2-yl)methoxy)-5,6,7,8-tetrahydro-2,6-naphthyridine-4-carbonitrile], in the experiment with MIAPACA-2 cell line, the inhibition at 3 µM is 75 to 100% and the inhibition at 10 µM lay in the range of 75 to 100%. In the experiment on MIAPACA-2 cell line, `C=C(F)C(=O)N1CCN(c2nc(OC[C@@H]3CCCN3C)c(C#N)c3c2CCN(c2cccc4ccccc24)C3)CC1CC#N` (stereo partly drawn) [Ex 20, 1-(3-(cyanomethyl)-4-(2-fluoroacryloyl)piperazin-1-yl)-3-(((S)-1-methylpyrrolidin-2-yl)methoxy)-6-(naphthalen-1-yl)-5,6,7,8-tetrahydro-2,6-naphthyridine-4-carbonitrile] displayed an inhibition at 3 µM of 50 to 75% and an inhibition at 10 µM of 75 to 100%. Consider `C=CC(=O)N1CCN(c2nc(OC[C@@H]3CCCN3C)c(C#N)c3c2CCN(c2cncc4ccccc24)C3)CC1` [Ex 21, (S)-1-(4-acryloylpiperazin-1-yl)-6-(isoquinolin-4-yl)-3-((1-methylpyrrolidin-2-yl)methoxy)-5,6,7,8-tetrahydro-2,6-naphthyridine-4-carbonitrile], for which, in the experiment on MIAPACA-2 cell line, the inhibition at 3 µM was in the range of 50 to 75% and the inhibition at 10 µM was in the range of 50 to 75%. Regarding `C=C(F)C(=O)N1CCN(c2nc(OC[C@@H]3CCCN3C)c(C#N)c3c2CCN(c2cccc4cccc(Cl)c24)C3)CC1CC#N` (stereo partly drawn) [Ex 26, 6-(8-chloronaphthalen-1-yl)-1-(3-(cyanomethyl)-4-(2-fluoroacryloyl)piperazin-1-yl)-3-(((S)-1-methylpyrrolidin-2-yl)methoxy)-5,6,7,8-tetrahydro-2,6-naphthyridine-4-carbonitrile], in the experiment on NCI-H358 cell line, the inhibition at 3 µM lay within 25 to 50% and the inhibition at 10 µM was in the range of 75 to 100%. On to `C=C(F)C(=O)N1CCN(c2nc(OC[C@@H]3CCCN3C)c(C#N)c3c2CCN(c2cccc4cccc(Cl)c24)C3)C[C@@H]1CC#N` [Ex 27, 6-(8-chloronaphthalen-1-yl)-1-((S)-3-(cyanomethyl)-4-(2-fluoroacryloyl)piperazin-1-yl)-3-(((S)-1-methylpyrrolidin-2-yl)methoxy)-5,6,7,8-tetrahydro-2,6-naphthyridine-4-carbonitrile], for which, in the experiment with NCI-H358 cell line, the inhibition at 3 µM fell in the range of 50 to 75% and the inhibition at 10 µM is 75 to 100%. For the compound `C=CC(=O)N1CCN(c2nc(N3CCN(C(=O)C=C)CC3)c3c(c2C#N)CN(Cc2ccccc2)CC3)CC1` [Ex 32, 1,3-bis(4-acryloylpiperazin-1-yl)-6-benzyl-5,6,7,8-tetrahydro-2,6-naphthyridine-4-carbonitrile], the inhibition at 10 µM with NCI-H358 cell line lay in the range of 50 to 75%. Take `C=CC(=O)Oc1nc(N2CCN(C(=O)C=C)CC2)c2c(c1C#N)CN(Cc1ccccc1)CC2` [Ex 33, 1-(4-acryloylpiperazin-1-yl)-6-benzyl-4-cyano-5,6,7,8-tetrahydro-2,6-naphthyridin-3-yl acrylate]: the inhibition at 10 µM with NCI-H358 cell line was at most 25%.

For orientation: inhibition means the percentage by which the read-out fell short of the control. Read a low inhibition as a response near the control.
